Laboratory results as given in ChEMBL document CHEMBL1139749, “Design, synthesis and in vivo activity of 9-(S)-dihydroerythromycin derivatives as potent anti-inflammatory agents” (2006).

System: Mus musculus
Test: Antiinflammatory activity in topically dosed CD1 mouse assessed as inhibition of PMA-induced ear edema at 0.5 mg/ear
Assay type: functional

Going from `CC[C@H]1OC(=O)[C@H](C)[C@@H](O[C@H]2C[C@@](C)(OC)[C@@H](O)[C@H](C)O2)[C@H](C)[C@@H](O[C@H]2O[C@@H](C)C[C@@H](N(C)CCCNCc3nccs3)[C@@H]2O)[C@](C)(O)C[C@@H](C)[C@H](O)[C@H](C)[C@@H](O)[C@]1(C)O` to `CC[C@H]1OC(=O)[C@H](C)[C@@H](O[C@H]2C[C@@](C)(OC)[C@@H](O)[C@H](C)O2)[C@H](C)[C@@H](O[C@H]2O[C@@H](C)C[C@@H](NCCNCCNCc3nccs3)[C@@H]2O)[C@](C)(O)C[C@@H](C)[C@H](O)[C@H](C)[C@@H](O)[C@]1(C)O`, the Inhibition falls from 74% to 43%.

Going from `CC[C@H]1OC(=O)[C@H](C)[C@@H](O)[C@H](C)[C@@H](O[C@H]2O[C@@H](C)C[C@@H](N(C)CCCNCc3nccs3)[C@@H]2O)[C@](C)(O)C[C@@H](C)[C@H](O)[C@H](C)[C@@H](O)[C@]1(C)O` to `CC[C@H]1OC(=O)[C@H](C)[C@@H](O)[C@H](C)[C@@H](O[C@H]2O[C@@H](C)C[C@@H](NCCNCCNCc3nccs3)[C@@H]2O)[C@](C)(O)C[C@@H](C)[C@H](O)[C@H](C)[C@@H](O)[C@]1(C)O`, the Inhibition falls from 53% to 45%.

Compared with `CC[C@H]1OC(=O)[C@H](C)[C@@H](O[C@H]2C[C@@](C)(OC)[C@@H](O)[C@H](C)O2)[C@H](C)[C@@H](O[C@H]2O[C@@H](C)C[C@@H](N(C)C(=O)CNCCN(C)C)[C@@H]2O)[C@](C)(O)C[C@@H](C)[C@H](O)[C@H](C)[C@@H](O)[C@]1(C)O`, `CC[C@H]1OC(=O)[C@H](C)[C@@H](O[C@H]2C[C@@](C)(OC)[C@@H](O)[C@H](C)O2)[C@H](C)[C@@H](O[C@H]2O[C@@H](C)C[C@@H](N(C)C(=O)CNCCC(C)C)[C@@H]2O)[C@](C)(O)C[C@@H](C)[C@H](O)[C@H](C)[C@@H](O)[C@]1(C)O` is lower in Inhibition: 31% for the first, 18% for the second.

First: CC[C@H]1OC(=O)[C@H](C)[C@@H](O[C@H]2C[C@@](C)(OC)[C@@H](O)[C@H](C)O2)[C@H](C)[C@@H](O[C@H]2O[C@@H](C)C[C@@H](N(C)C(=O)CNCc3ccccc3)[C@@H]2O)[C@](C)(O)C[C@@H](C)[C@H](O)[C@H](C)[C@@H](O)[C@]1(C)O
Second: CC[C@H]1OC(=O)[C@H](C)[C@@H](O[C@H]2C[C@@](C)(OC)[C@@H](O)[C@H](C)O2)[C@H](C)[C@@H](O[C@H]2O[C@@H](C)C[C@@H](N(C)C(=O)CNCCNCc3ccccc3)[C@@H]2O)[C@](C)(O)C[C@@H](C)[C@H](O)[C@H](C)[C@@H](O)[C@]1(C)O
The Inhibition of the first is lower: 71% for the first, 87% for the second.

First: CC[C@H]1OC(=O)[C@H](C)[C@@H](O[C@H]2C[C@@](C)(OC)[C@@H](O)[C@H](C)O2)[C@H](C)[C@@H](O[C@H]2O[C@@H](C)C[C@@H](N(C)Cc3ccccc3)[C@@H]2O)[C@](C)(O)C[C@@H](C)[C@H](O)[C@H](C)[C@@H](O)[C@]1(C)O
Second: CC[C@H]1OC(=O)[C@H](C)[C@@H](O[C@H]2C[C@@](C)(OC)[C@@H](O)[C@H](C)O2)[C@H](C)[C@@H](O[C@H]2O[C@@H](C)C[C@@H](N(C)C(C)=O)[C@@H]2O)[C@](C)(O)C[C@@H](C)[C@H](O)[C@H](C)[C@@H](O)[C@]1(C)O
The Inhibition of the first is lower: 58% for the first, 79% for the second.

Going from `CC[C@H]1OC(=O)[C@H](C)[C@@H](O)[C@H](C)[C@@H](O[C@H]2O[C@@H](C)C[C@@H](N(C)C(C)=O)[C@@H]2O)[C@](C)(O)C[C@@H](C)[C@H](O)[C@H](C)[C@@H](O)[C@]1(C)O` to `CC[C@H]1OC(=O)[C@H](C)[C@@H](O[C@H]2C[C@@](C)(OC)[C@@H](O)[C@H](C)O2)[C@H](C)[C@@H](O[C@@H]2O[C@H](C)C[C@H](N(C)C)[C@H]2O)[C@](C)(O)C[C@@H](C)C(=O)[C@H](C)[C@@H](O)[C@]1(C)O` [ERYTHROMYCIN], the Inhibition falls from 66% to 42%.
